The test system of one data set is CCCCC(=O)CC(C)=O. Briefly: purified protein, by the assay type. The note with it: other: apparent; photometric, oxygen-saturated buffer, substrate 10-200 μM; pH 7.5; 25.0 °C.
In the next data set the test system is CC(=O)C(C)C(C)=O. Kind of data set: purified protein, by the assay type. The note with it: other: apparent; photometric, oxygen-saturated buffer, substrate 10-200 μM; pH 7.5; 25.0 °C.
Another data set relates to CC(=O)C1CCCCC1=O. Kind of data set: purified protein, by the assay type. The note with it: other: apparent; photometric, oxygen-saturated buffer, substrate 10-200 μM; pH 7.5; 25.0 °C.
For the next data set, the system named is CCCCCC(=O)CC(C)=O. Kind of data set: purified protein, by the assay type. The note with it: other: apparent; photometric, oxygen-saturated buffer, substrate 10-200 μM; pH 7.5; 25.0 °C.
For another data set, the system named is CC(=O)C1CCCC1=O. Briefly: purified protein, by the assay type. The note with it: other: apparent; photometric, oxygen-saturated buffer, substrate 10-200 μM; pH 7.5; 25.0 °C.
For the next data set, the system named is CC(=O)CC(=O)C(C)(C)C. Briefly: purified protein, by the assay type. The note with it: other: apparent; photometric, oxygen-saturated buffer, substrate 10-200 μM; pH 7.5; 25.0 °C.
Data set [1] has as its target T1, 1,3-dicarbonyl-dioxygenase (Acinetobacter johnsonii, UniProt Q8GNT2). Briefly: Determination of enzyme-activity and stability versus pH and additives. It counts as physicochemical. The procedure: Activity measurements were performed with the oxygen-electrode, with KH2PO4-buffers adjusted to various pH-values [5.0-9.0]. For stability measurements, the enzyme was diluted ten-fold and incubated at various pH-values [5.0-9.0]. The activity was measured periodically with the UV-activity-assay.

Another data set has as its system tRNA. The note with it: cited from earlier work.
The next data set deals with Salmonella typhimurium. The note with it: cited from earlier work.
The target of data set [2] is T2, recombinant 1,3-dicarbonyl-dioxygenase (expressed in E.coli) (Acinetobacter johnsonii, UniProt Q8GNT2).
T2 construct: made in house; host or cells: E. coli XL1 Blue, plasmid pMS470 (tac promoter, NdeI/HindIII)
Kind of data set: Relative activity of recombinant protein at non-limiting substrate concentrations. In kind it is biochemical. Here is the method: Expression constructs were expressed in E.coli XL1 Blue (Stratagene, La Jolla, Calif.), which was grown to an OD of 1 at 30° C. on rotatory shakers in erlenmeyer flasks, then induced with IPTG (0.3 mM) and incubated for another 5 hours.
(§1) The reaction rates were determined by using the microcomputer regression program provided with the spectrophotometer (Winspec) based on the first ten absorbance measurements made at 5-s intervals.
(§2) Oxygen consumption during the enzyme reaction was measured with an oxygen-electrode-cell (Digital Oxygen System Model 10, Rank Brothers Ltd., Cambridge, England) as described previously (Beechey, R. B. and Ribbons, D. W. (1971). ‘Methods in Microbiology’.V. 6B. Edited by J. R. Norris and D. W. Ribbons. Academic press, London. ‘Oxygen electrode measurements’ (Chapter II) pp. 29-52.). The reaction mixture contained air-saturated KH2PO4-buffer, 50 mM, pH 7.5 at 25° C. (thermostat). The oxygen-electrode was calibrated by the sodium-sulfite-method. Varying concentrations of substrate (0.01-0.3 mM) were added and the resulting decrease of oxygen was determined.

Data set [3] deals with wild-type 1,3-dicarbonyl-dioxygenase (Acinetobacter johnsonii, UniProt Q8GNT2). Briefly: Relative activity of wild-type enzyme at non-limiting substrate concentrations. In kind it is biochemical. Here is the method:
as §1, §2

Data set [4] addresses T1, 1,3-dicarbonyl-dioxygenase. Kind of data set: Products of various substrates determined by HPLC (cleavage stoichiometry, partially purified enzyme). In kind it is biochemical. The note with it: substrate 4 mM, 25° C., one hour; for Substrate % (remaining): remaining substrate calculated; for Acetate % / Methylglyoxal %: oxygen saturated buffer. The source says:
The products of the enzyme reaction were identified directly from the reaction mixture by in situ ^1H-NMR-spectroscopy (Pokorny, D., L. Brecker, M. Pogorevc, H. Griengl, W. Steiner, T. Kappe, and D. W. Ribbons. 1999. Proton-Nuclear Magnetic Resonance Analyses of the Substrate Specificity of a β-Ketolase from Pseudomonas putida, Acetopyruvate Hydrolase. J. Bacteriol. 181: 5051-5059.). Therefore a 200 MHz narrow bore magnet (Varian Gemini™ 2000, Varian, Inc., Palo Alto, Calif.) and a 5 mm broadband probe head were used. The NMR tube was rotated at 20 rps. For a lock a D2O vortex capillary was added to avoid ^1H/D exchange reactions. The overwhelming water-signal was suppressed with a presaturation method (Guéron, M., P. Plateau and M. Decorps. 1991. Solvent signal suppression in NMR. Prog. NMR Spectrosc. 23: 135-209. Hore, J. P. 1989. Solvent suppression. p. 64. In N. J. Oppenheimer and J. T. James (eds.), Methods Enzymol. 176. Academic Press, Inc., San Diego.). The following parameters were adjusted for a ^1H-frequency of 200 MHz: presaturation-duration of 1.0 s, ^1H-pulse-angle of 90, an acquisition-time of 2.0 s and a relaxation delay of 1.5 s. 64 Scans were accumulated and after a zero filling to 32 k datapoints the free induction decay was Fourier transformed. The water signal (4.70 ppm) was used as a reference. For standard reaction analytics HPLC-measurements were performed (Hewlett-Packard, column: Aminex-HPX-87H, UV- and RI-detector, eluent Sulfuric acid 0.005 M).
The cleavage-stoichiometry of several non-symmetrical substrates was also investigated, in order to be able to determine the regiospecificity of the enzyme. This was done by conversion of the respective substrate with partially purified enzyme. Methylglyoxal and acetate formed were measured by HPLC. Remaining substrate was calculated.

The target of data set [5] is T1, 1,3-dicarbonyl-dioxygenase. Briefly: Substrate spectrum / apparent kinetic constants of purified 1,3-dicarbonyl-dioxygenase (UV assay and oxygen electrode). The note with it: for Vmaxrel. / KO2: apparent; for Vmaxrel.: relative to acetylacetone = 1.00, purified wild-type enzyme; for KO2: polarographic, estimated from rate of oxygen depletion, substrate 0.5-1 mM; for O2/Substrate: oxygen consumed per substrate, oxygen electrode. The procedure:
as §1
Substrates were dissolved at a concentration of 0.001-1 mM in KH2PO4-buffer, 50 mM, pH 7.5 using a 10 mM stock solution. Duplicate absorption-measurements of 20 different dilutions were performed at 25° C. The molar absorption coefficients were calculated by linear regression.
as §2
Assuming the Michaelis-Menten-equation, Vmax and Ks values were calculated by non-linear curve-fit by the program microcal-origin. KO2 was estimated by polarographic methods, adding non limiting amounts of substrate (0.5-1 mM) and graphically determining the oxygen concentration at the point of half of the maximum activity. Ks-values were similarly confirmed by polarographic methods, by stepwise addition of substrate to a final concentration of 20-150 μM.

For data set [6] the following is noted: cited from earlier work.
Data set [7] has as its target T1, 1,3-dicarbonyl-dioxygenase. Kind of data set: Reaction analysis with purified enzyme by in situ 1H-NMR / HPLC. The note with it: no cofactor added. It counts as biochemical.
Where [8] appears, read: relative activity, acetylacetone = 1.00, non-limiting substrate concentrations.
[9] abbreviates: repeated exposure, peroral and inhalation routes.
Where [10] appears, read: glycerol 10%, glucose 12.5%, ascorbate 1 mM, bovine serum albumin 1-20 mg/mL, dithiothreitol 1 mM, mercaptoethanol 1 mM.

The Km is the substrate concentration at which the rate is half of its maximum.

Read-outs that look alike come from different tables or passages of the source.

As for “1,3-dicarbonyl-dioxygenase (Acinetobacter johnsonii)”, the Km turned out to be 5.9 ± 1.5 µM in the data set on CCCCC(=O)CC(C)=O; 23.1 ± 6.8 µM in the data set with CC(=O)C(C)C(C)=O; 18.1 ± 4.2 µM in the data set with CC(=O)C1CCCCC1=O; 7.5 ± 2.1 µM in the data set with CCCCCC(=O)CC(C)=O; 21.0 ± 6.1 µM in the data set on CC(=O)C1CCCC1=O; 14.2 ± 3.7 µM in the data set with CC(=O)CC(=O)C(C)(C)C.
As for `O[C@H](CS)[C@H](O)CS` (racemic) [dithiothreitol], the “effect of potential stabilizing agent on enzyme stability” value (shortened to “effect of potential stabilizing agent”) in [1] was “did not enhance stability”.
For the molecule `CC(=O)CC(=O)C(F)(F)F` [1,1,1-trifluoroacetylacetone], in the data set on tRNA, the “inhibition of binding to tRNA of aflatoxin B1” value is “inhibited”.
For `O=C1CC(=O)c2ccccc21` [1,3-indandione], the “inhibition of binding to tRNA of aflatoxin B1” value in the data set with tRNA is on record as “inhibited”. In the data set on Salmonella typhimurium, the “inhibition of mutagenicity of aflatoxin B1” value is listed as “inhibit” and the “inhibition of mutagenicity of benzo[a]pyrene” value is listed as “inhibit”. Further, the “inhibition of mutagenicity of methylnitrosourea” value in the data set with Salmonella typhimurium (concomitant exposure to inhibitor and mutagen necessary) is given as “inhibit”.
On to `CC(=O)C(C)C(C)=O` [3-Methylpentandion, 3-Methylpentanedione], for which, in data set [2], the Vmax clone is on record as 0.85. Further, the Vmax wild-type in data set [3] was found to be 0.83. In data set [4], the “Substrate % (remaining)” value is recorded as 18% and the Acetate % is on record as 82%. Moreover, in data set [5], the “acceptance as substrate (in words)” value is given as “quite good reaction rated”, the Vmaxrel. came out at 0.25, the KO2 is 40 ± 8 µM and the O2/Substrate turned out to be 1.0.
For the molecule `CC(=O)CC(=O)C(C)(C)C` [5,5-Dimethylhexan-2,4-dion, 5,5-Dimethylhexane-2,4-dione], in data set [2], the Vmax clone stood at 0.08. In addition, the Vmax wild-type in [3] is 0.05. For the same molecule, in data set [4], the Methylglyoxal/Acetate was 3.3, the “Substrate % (remaining)” value was 9%, the Acetate % is 21% and the Methylglyoxal % is listed as 70%. Besides, in [5], the “acceptance as substrate (in words)” value is “cleaved at significantly lower rates”, the Vmaxrel. came out at 0.25, the KO2 was 70 ± 15 µM and the O2/Substrate is 0.9.
With `CC(=O)CC(C)=O` [Acetylacetone, pentane-2,4-dione], the Vmax clone in [2] (setting [8]) was 1.00. The Vmax wild-type in data set [3] (setting [8]) is on record as 1.00. In addition, the fetotoxicity result in data set [6] (in vivo) is “fetotoxicity was observed”. Besides, in data set [6] (setting [9]), the immune system toxicity result is reported as “possible immune system toxicity” and the neurotoxicity result is on record as “central neurotoxicity”. Further, the “acetate found per mmol of acetyl-acetone cleaved” value in data set [7] is listed as “one”. In data set [4], the “Substrate % (remaining)” value is given as 0%, the Acetate % is recorded as 50% and the Methylglyoxal % came out at 50%. Further, in [5] (activity-pH-relationship studies), the “pH up to which the substrate is accepted by the enzyme” value is not above 9. Besides, in data set [5], the Vmaxrel. came out at 1.00 and the KO2 was 38 ± 6 µM.
As for `CC(=O)CC(=O)c1ccccc1` [benzoylacetone], in the data set on tRNA, the “inhibition of binding to tRNA of benzo[a]pyrene” value was “inhibited”. The “inhibition of mutagenicity of 2-naphthohydroxamic acid” value in the data set with Salmonella typhimurium is on record as “inhibit”.
On to `O=C(CC(=O)c1ccccc1)c1ccccc1` [dibenzoylmethane], for which, in the data set on tRNA, the “inhibition of binding to tRNA of aflatoxin B1” value is “inhibited” and the “inhibition of binding to tRNA of benzo[a]pyrene” value was “inhibited”. In addition, in the data set on Salmonella typhimurium, the “inhibition of mutagenicity of 2-naphthohydroxamic acid” value is recorded as “inhibit”, the “inhibition of mutagenicity of aflatoxin B1” value is recorded as “inhibit”, the “inhibition of mutagenicity of benzo[a]pyrene” value is given as “inhibit” and the “inhibition of mutagenicity of methylnitrosourea” value is “inhibit”.
Turning to `OCC(O)CO` [glycerol], the “effect of potential stabilizing agent” value in data set [1] (setting [10]) was “did not enhance stability”.
As to `OCCS` [mercaptoethanol], in data set [1], the “effect of potential stabilizing agent” value was “did not enhance stability”.
As to “bovine serum albumin: potential stabilizing agent added to the enzyme”, the “effect of potential stabilizing agent” value in data set [1] (setting [10]) was “did not enhance stability”.

B1: 1,3-dicarbonyl-dioxygenase: Purified A. johnsonii enzyme, about 67 kDa, subunits of about 16.6 kDa (SEQ ID NO: 2), cleaves 1,3-dicarbonyl compounds with molecular oxygen (protein)
chain: MDYCNKKHTAEEYVKISDNNYVPFPEAFSDGGITWQLLHSSPETSSWTAIFNCPAGSSFASHIHAGPGEYFLTKGKMEVRGGEQEGGSTAYAPSYGFESSGALHGKTFFPVESQFYMTFLGPLNFIDDNGKVIASIGWAEAQGAWLATKNEAA
Turning to B1, the halftime-stability in [1] (0.05 mg/mL protein concentration, 4° C.) was found to be 3550 min. The “pH of maximum stability” value in data set [1] (enzyme incubated at pH 5.0-9.0) was 7.5-8.0. For the same molecule, the “pH of maximum activity” value in [1] (oxygen electrode, KH2PO4-buffers pH 5.0-9.0) was 6.0-7.5. Besides, in data set [5] (acetylacetone as substrate), the “apparent Vmax of the purified enzyme” value is recorded as 10.5 U/mgEnzyme.

Values taken from patent publication US6790644B2, “1,3-dicarbonyl-dioxygenase—a new c-c-bond cleaving enzyme” (Biocatalytics, Inc., priority 2001, dated 2004).
